Our source for the IC50 and inhibition values is patent US8134015B2, “Compound inhibiting in vivo phosphorous transport and medicine containing the same” (Kyowa Hakko Kirin Co., Ltd., priority 2003, dated 2012).

The target in one experiment is T1, rat NaPi-2b (Rattus norvegicus, UniProt Q9JJ09).
T1 construct: expressed in transfected cells; host or cells: Xenopus oocytes injected with cRNA
T1 sequence (Q9JJ09 1-695): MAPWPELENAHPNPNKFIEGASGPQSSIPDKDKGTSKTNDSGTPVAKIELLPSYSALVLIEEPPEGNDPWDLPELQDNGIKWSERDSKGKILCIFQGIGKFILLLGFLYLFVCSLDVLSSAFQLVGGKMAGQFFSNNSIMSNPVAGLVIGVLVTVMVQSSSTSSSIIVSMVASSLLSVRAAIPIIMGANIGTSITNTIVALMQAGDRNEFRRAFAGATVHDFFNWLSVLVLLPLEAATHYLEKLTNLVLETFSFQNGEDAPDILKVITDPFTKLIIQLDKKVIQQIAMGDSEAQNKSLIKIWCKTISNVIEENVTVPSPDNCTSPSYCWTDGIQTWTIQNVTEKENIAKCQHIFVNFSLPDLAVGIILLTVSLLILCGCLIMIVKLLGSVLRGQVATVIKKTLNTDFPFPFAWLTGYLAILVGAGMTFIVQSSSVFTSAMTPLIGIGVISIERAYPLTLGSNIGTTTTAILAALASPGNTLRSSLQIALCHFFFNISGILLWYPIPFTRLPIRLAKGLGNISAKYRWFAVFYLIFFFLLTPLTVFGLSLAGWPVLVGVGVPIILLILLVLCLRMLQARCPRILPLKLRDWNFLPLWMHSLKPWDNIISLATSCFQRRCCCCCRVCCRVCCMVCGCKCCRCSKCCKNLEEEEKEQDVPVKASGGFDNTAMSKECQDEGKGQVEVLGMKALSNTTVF
The experiment can be described thus: Sodium-dependent phosphate uptake of Xenopus oocytes which expressed NaPi-2b (32P). Format: cell-based. Particulars: Xenopus oocytes expressing rat NaPi-2b, 32P radioactive phosphorus; read-out: IC50 (phosphate uptake inhibitory activity). The method, boiled down:
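Inhibition at 300 μM and 100 μM was read off one inhibition curve of 32P phosphate uptake. Uptake was measured in Xenopus oocytes cultured 2 days after injection of cRNA for cloned rat NaPi-2b.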
On to `Cc1ccc(/C=N/NC(=O)c2cc(Br)ccc2NC(=O)c2ccc(CNCCCN(C)c3ccccc3)cc2)cc1C` [Compound 757, N-[4-Bromo-2-(3,4-dimethyl-benzylidene-hydrazinocarbonyl)-phenyl]-4-{[3-(methyl-phenyl-amino)-propylamino]-methyl}-benzamide], for which the IC50 worked out at 18.8 µM.

Take `COc1ccc(/C=N/NC(=O)c2ccsc2NC(=O)c2cccc(CSCCCO)c2)cc1` [Compound 663, 3-(3-Hydroxy-propylsulfanylmethyl)-N-[3-(4-methoxy-benzylidene-hydrazinocarbonyl)-thiophen-2-yl]-benzamide]: the IC50 turned out to be 137 µM.

Regarding `O=C(Nc1ccc(Cl)cc1C(=O)N/N=C/c1ccc(Cl)c(C(F)(F)F)c1)c1cnc2ccccc2n1` [Compound 1006, Quinoxaline-2-carboxylic acid[4-chloro-2-(4-chloro-3-trifluoromethyl-benzylidene-hydrazinocarbonyl)-phenyl]-amide], the IC50 is 6.31 µM.

Take `O=C(Nc1cc2ccccc2cc1C(=O)N/N=C/c1cccc(F)c1)c1cccc(CN2CCN(CCO)CC2)c1` [Compound 969, N-[3-(3-Fluoro-benzylidene-hydrazinocarbonyl)-naphthalen-2-yl]-3-[4-(2-hydroxy-ethyl)-piperazin-1-ylmethyl]-benzamide]: the IC50 was < 3 µM.

For `CCN(CC)CCN(C)Cc1cccc(C(=O)Nc2ccc(N3CCOCC3)cc2C(=O)N/N=C/c2ccc(Cl)c(C(F)(F)F)c2)c1` [Compound 1075, N-[2-(4-Chloro-3-trifluoromethyl-benzylidene-hydrazinocarbonyl)-4-morpholin-4-yl-phenyl]-3-{[(2-diethylamino-ethyl)-methyl-amino]-methyl}-benzamide], the IC50 was found to be 1.34 µM.

For the compound `COc1ccccc1/C=C/C=N/NC(=O)c1cc(Cl)ccc1NC(=O)c1cccnc1` [Compound 354, N-{4-Chloro-2-[3-(2-methoxy-phenyl)-allylidene-hydrazinocarbonyl]-phenyl}-nicotinamide], the IC50 was 1.54 µM.

With `Cc1ccc(/C=N/NC(=O)c2ccccc2NC(=O)c2cccc(F)c2)cc1C` [Compound 95, N-[2-(3,4-Dimethyl-benzylidene-hydrazinocarbonyl)-phenyl]-3-fluoro-benzamide], the half-maximal inhibitory concentration (IC50) was 1.27 µM.

Consider `COc1ccc(/C=N/NC(=O)c2c(NC(=O)c3cccc(CN4CCC(CO)CC4)c3)sc3c2CCCC3)cc1` [Compound 644, 3-(4-Hydroxymethyl-piperidin-1-ylmethyl)-N-[3-(4-methoxy-benzylidene-hydrazinocarbonyl)-4,5,6,7-tetrahydro-benzo-[b]thiophen-2-yl]-benzamide], for which the IC50 was found to be 5.91 µM.

With `Cc1ccc(/C=N/NC(=O)c2cc(Cl)ccc2NC(=O)c2cccc(CSCc3ccco3)c2)cc1` [Compound 682, N-[4-Chloro-2-(4-methyl-benzylidene-hydrazinocarbonyl)-phenyl]-3-(furan-2-ylmethylsulfanylmethyl)-benzamide], the IC50 was 12.5 µM.

For `Cc1ccc(/C=N/NC(=O)c2cc(Cl)ccc2NC(=O)c2cccc(CN(C)CCO)c2)cc1` [Compound 397, N-[4-Chloro-2-(4-methyl-benzylidene-hydrazinocarbonyl)-phenyl]-3-{[(2-hydroxy-ethyl)-methyl-amino]-methyl}-benzamide], the IC50 came to 9.25 µM.

Regarding `O=c1c2c3c(sc2nc(-c2cccc(CSc4nc[nH]n4)c2)n1/N=C/c1ccc(Cl)c(C(F)(F)F)c1)CCCC3` [Compound 650, 3-[(4-Chloro-3-trifluoromethyl-benzylidene)-amino]-2-[3-(1H-[1,2,4]triazol-3-ylsulfanylmethyl)-phenyl]-5,6,7,8-tetrahydro-3H-benzo[4,5]thieno[2,3-d]pyrimidin-4-one], the IC50 stood at 0.95 µM.

Turning to `O=C(Nc1ccc(Br)cc1C(=O)N/N=C/c1ccc(F)cc1)c1cccc(CSc2nc[nH]n2)c1` [Compound 270, N-[4-Bromo-2-(4-fluoro-benzylidene-hydrazinocarbonyl)-phenyl]-3-(1H-[1,2,4]triazol-3-ylsulfanylmethyl)-benzamide], the IC50 amounted to 5.04 µM.

In the case of `COc1ccc(C(=O)Nc2ccc(Cl)cc2C(=O)N/N=C/c2cccnc2)cc1OC` [Compound 111, N-[4-Chloro-2-(pyridin-3-ylmethylene-hydrazinocarbonyl)-phenyl]-3,4-dimethoxy-benzamide], the IC50 was found to be 9.12 µM.

For `Cc1ccc(/C=N/NC(=O)c2cscc2NC(=O)c2cccc(CN3CCN(CCO)CC3)c2)cc1` [Compound 981, 3-[4-(2-Hydroxy-ethyl)-piperazin-1-ylmethyl]-N-[4-(4-methyl-benzylidene-hydrazinocarbonyl)-thiophen-3-yl]-benzamide], the IC50 turned out to be 12.2 µM.

Take `O=C(Nc1ccc(N2CCCCC2)cc1C(=O)N/N=C/c1ccc(F)cc1)c1cccc(CN2CCC(O)CC2)c1` [Compound 872, N-[2-(4-Fluoro-benzylidene-hydrazinocarbonyl)-4-piperidin-1-yl-phenyl]-3-(4-hydroxy-piperidin-1-ylmethyl)-benzamide]: the IC50 was < 3 µM.

For `Cc1ccc(/C=N/NC(=O)c2cscc2NC(=O)c2cccc(CN3CCN(CCO)CC3)c2)cc1C` [Compound 982, N-[4-(3,4-Dimethyl-benzylidene-hydrazinocarbonyl)-thiophen-3-yl]-3-[4-(2-hydroxy-ethyl)-piperazin-1-ylmethyl]-benzamide], the IC50 is 8.05 µM.

Take `O=C(Nc1sccc1C(=O)N/N=C/c1ccc(F)cc1)c1cccc(CSCCCO)c1` [Compound 660, N-[3-(4-Fluoro-benzylidene-hydrazinocarbonyl)-thiophen-2-yl]-3-(3-hydroxy-propylsulfanylmethyl)-benzamide]: the 50% inhibitory concentration (IC50) is 18.7 µM.

Take `CCN(CC)CCN(CCN(CC)CC)Cc1cccc(C(=O)Nc2scc(C)c2C(=O)N/N=C/c2ccc(Cl)c(C(F)(F)F)c2)c1` [Compound 842, 3-{[Bis-(2-diethylamino-ethyl)-amino]-methyl}-N-[3-(4-chloro-3-trifluoromethyl-benzylidene-hydrazinocarbonyl)-4-methyl-thiophen-2-yl]-benzamide]: the IC50 turned out to be 3.22 µM.

`Cc1csc(NC(=O)c2cccc(CN3CCC(N4CCCCC4)CC3)c2)c1C(=O)N/N=C/c1ccc(Cl)c(C(F)(F)F)c1` [Compound 573, 3-[1,4′]Bipiperidinyl-1′-ylmethyl-N-[3-(4-chloro-3-trifluoromethyl-benzylidene-hydrazinocarbonyl)-4-methyl-thiophen-2-yl]-benzamide]: the IC50 amounted to 1.75 µM.

As to `COc1ccc(C(=O)Nc2ccc(OCCCN(C)C)cc2C(=O)N/N=C/c2ccc(F)cc2)cc1OC` [Compound 125, N-[4-(3-Dimethylamino-propoxy)-2-(4-fluoro-benzylidene-hydrazinocarbonyl)-phenyl]-3,4-dimethoxy-benzamide], the IC50 was determined as 136 µM.

Turning to `Cc1csc(NC(=O)c2cccc(CN3CCC(N4CCCCC4)CC3)c2)c1C(=O)N/N=C/c1ccc(F)cc1` [Compound 571, 3-[1,4′]Bipiperidinyl-1′-ylmethyl-N-[3-(4-fluoro-benzylidene-hydrazinocarbonyl)-4-methyl-thiophen-2-yl]-benzamide], the IC50 came to 5.27 µM.

Still in this experiment, the particulars now being: phosphate uptake, oocytes expressing rat NaPi-2b; 300 μM, determined from inhibition curve.
In the case of `CCN(CC)CCN(C)Cc1cccc(C(=O)Nc2c(C)csc2C(=O)N/N=C/c2ccc(C)cc2)c1` [Compound 710, 3-{[(2-Diethylamino-ethyl)-methyl-amino]-methyl}-N-[4-methyl-2-(4-methyl-benzylidene-hydrazinocarbonyl)-thiophen-3-yl]-benzamide], the inhibition at 300 µM amounted to 83.1%.

Usually IC50 stands for the concentration at which inhibition is half-maximal. A word on the inhibition: it is the change of the read-out against control, counted positive when it falls.
